Results: patent publication US20040204577A1, “Novel peptide-forming enzyme gene” (Ajinomoto Co., Inc., priority 2003, published 2004)
Where a SMILES comes first, the peptide text is derived from it.

Test system: SP-Sepharose HP fraction enzyme
Test: Production of L-alanyl-L-glutamine using enzyme fraction of Sphingobacterium sp.
Assay type: biochemical
Conditions: 10 μl fraction (about 27 U/ml) + 90 μl buffer with 111 mM L-alanine methyl ester hydrochloride, 222 mM L-glutamine; pH 9.0, 25° C., 120 minutes
Protocol: The following procedure after centrifugation was carried out either on ice or at 4° C. Sphingobacterium sp. strain FERM BP-8124 (Depositary institution: the independent administrative corporation, National Institute of Advanced Industrial Science and Technology, International Patent Organism Depositary, Address of depositary institution: Chuo Dai-6, 1-1 Higashi 1-Chome, Tsukuba-shi, Ibaraki-ken, Japan, International deposit date: Jul. 22, 2002) was cultured in the same manner as Example 21, and the microbial cells were collected by centrifugation (10,000 rpm, 15 minutes). After washing 2 g of microbial cells with 20 mM Tris-HCl buffer (pH 7.6), they were suspended in 8 ml of the same buffer and subjected to ultrasonic crushing treatment for 45 minutes at 195 W. This ultrasonic crushed suspension was then centrifuged (10,000 rpm, 30 minutes) to remove the crushed cell fragments and obtain a supernatant. This supernatant was dialyzed overnight against 20 mM Tris-HCl buffer (pH 7.6) followed by removal of the insoluble fraction by ultracentrifugation (50,000 rpm, 30 minutes) to obtain a soluble fraction in the form of the supernatant liquid. The resulting soluble fraction was applied to a Q-Sepharose HP column (manufactured by Amersham) pre-equilibrated with Tris-HCl buffer (pH 7.6), and the active fraction was collected from the non-adsorbed fraction. […]

C[C@H](N)C(=O)N[C@@H](CCC(N)=O)C(=O)O [L-Ala-L-Gln, L-alanyl-L-glutamine] (H-Ala-Gln-OH)
L-alanyl-L-glutamine formed, enzyme-added lot: 73 mM
